From ChEMBL document CHEMBL2390840, “An analysis of the synthetic tryptamines AMT and 5-MeO-DALT: emerging 'Novel Psychoactive Drugs'” (Bioorg Med Chem Lett, 2013)

Tests used:
[1] = biological target: T1, 5-hydroxytryptamine receptor 2C (Homo sapiens, UniProt P28335); experiment: Displacement of [3H]Mesulergine from human recombinant 5-HT2C receptor expressed in HEK293 cells coexpressing FLP-IN after 1 to […] by scintillation counting analysis; type: cell-based
T1 sequence (P28335 whole entry): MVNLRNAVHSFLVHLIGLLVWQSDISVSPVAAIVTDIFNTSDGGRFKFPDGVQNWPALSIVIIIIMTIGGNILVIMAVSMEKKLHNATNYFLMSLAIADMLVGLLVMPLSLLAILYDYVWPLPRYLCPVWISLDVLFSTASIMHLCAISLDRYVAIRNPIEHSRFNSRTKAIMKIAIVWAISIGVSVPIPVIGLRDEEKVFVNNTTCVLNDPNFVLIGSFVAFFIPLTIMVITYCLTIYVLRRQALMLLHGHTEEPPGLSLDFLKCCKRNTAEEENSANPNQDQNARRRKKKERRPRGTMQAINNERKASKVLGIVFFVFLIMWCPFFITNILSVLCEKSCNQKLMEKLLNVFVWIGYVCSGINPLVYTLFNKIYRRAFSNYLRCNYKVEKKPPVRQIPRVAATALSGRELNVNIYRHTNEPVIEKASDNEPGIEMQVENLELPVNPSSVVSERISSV

[2] = biological target: Delta-type opioid receptor (Homo sapiens, UniProt P41143); experiment: Displacement of [3H]DADLE from human recombinant delta opioid receptor receptor expressed in HEK293 cells after 1 to […] by scintillation counting analysis; type: cell-based
[3] = biological target: Muscarinic acetylcholine receptor M3 (Homo sapiens, UniProt P20309); experiment: Displacement of [3H]QNB from human recombinant muscarinic M3 receptor expressed in CHO cells after 1 to […] by scintillation counting analysis; type: cell-based
Muscarinic acetylcholine receptor M3, sequence (P20309 whole entry): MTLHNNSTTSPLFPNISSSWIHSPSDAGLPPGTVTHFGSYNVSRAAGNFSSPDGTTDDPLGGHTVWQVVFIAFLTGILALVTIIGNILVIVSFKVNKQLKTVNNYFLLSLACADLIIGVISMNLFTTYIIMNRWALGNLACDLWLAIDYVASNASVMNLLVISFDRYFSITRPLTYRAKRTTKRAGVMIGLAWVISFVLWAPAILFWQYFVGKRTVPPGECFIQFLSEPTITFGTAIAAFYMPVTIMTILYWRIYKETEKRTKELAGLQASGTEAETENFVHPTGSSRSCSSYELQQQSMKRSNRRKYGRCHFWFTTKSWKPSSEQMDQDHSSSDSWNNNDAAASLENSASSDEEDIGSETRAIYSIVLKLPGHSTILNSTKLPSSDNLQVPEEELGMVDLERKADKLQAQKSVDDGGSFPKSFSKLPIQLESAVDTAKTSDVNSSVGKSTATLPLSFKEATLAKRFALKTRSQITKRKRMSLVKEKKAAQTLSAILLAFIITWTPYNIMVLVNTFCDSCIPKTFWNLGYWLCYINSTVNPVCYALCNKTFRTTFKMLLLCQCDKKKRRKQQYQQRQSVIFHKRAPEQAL

[4] = biological target: Muscarinic acetylcholine receptor M2 (Homo sapiens, UniProt P08172); experiment: Displacement of [3H]QNB from human recombinant muscarinic M2 receptor expressed in CHO cells after 1 to […] by scintillation counting analysis; type: cell-based
Muscarinic acetylcholine receptor M2, sequence (P08172 whole entry): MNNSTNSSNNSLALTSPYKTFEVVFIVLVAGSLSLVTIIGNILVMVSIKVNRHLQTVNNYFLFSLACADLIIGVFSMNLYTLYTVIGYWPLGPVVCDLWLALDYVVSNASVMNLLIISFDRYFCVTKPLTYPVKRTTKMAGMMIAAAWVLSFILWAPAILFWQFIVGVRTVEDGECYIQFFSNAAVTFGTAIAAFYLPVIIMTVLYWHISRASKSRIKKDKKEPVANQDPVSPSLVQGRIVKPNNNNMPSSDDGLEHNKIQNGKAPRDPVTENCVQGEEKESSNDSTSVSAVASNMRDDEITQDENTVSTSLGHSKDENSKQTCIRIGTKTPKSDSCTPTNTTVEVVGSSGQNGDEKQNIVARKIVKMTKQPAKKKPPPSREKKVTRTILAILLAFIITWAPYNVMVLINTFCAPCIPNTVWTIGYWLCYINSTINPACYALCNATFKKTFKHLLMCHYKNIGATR

[5] = biological target: Sigma non-opioid intracellular receptor 1 (Cavia porcellus, UniProt Q60492); experiment: Displacement of [3H]Pentazocine from guinea pig sigma 1 receptor after 1 to […] by scintillation counting analysis
Sigma non-opioid intracellular receptor 1, sequence (Q60492 whole entry): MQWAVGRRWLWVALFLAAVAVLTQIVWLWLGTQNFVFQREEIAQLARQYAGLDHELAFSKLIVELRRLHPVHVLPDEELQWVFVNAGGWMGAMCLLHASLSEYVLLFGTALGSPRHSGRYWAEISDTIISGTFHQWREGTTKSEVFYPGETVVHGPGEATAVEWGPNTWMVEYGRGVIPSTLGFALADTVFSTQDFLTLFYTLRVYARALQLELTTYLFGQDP

[6] = Displacement of [3H]Baclofen from GABAB receptor in rat brain after 1 to […] by scintillation counting analysis; type: tissue-based
D(1B) dopamine receptor = D(1B) dopamine receptor (Homo sapiens, UniProt P21918); experiment: Displacement of […] from human recombinant dopamine D5 receptor expressed in HEK293 cells after 1 to […] by scintillation counting analysis; type: cell-based
D(1B) dopamine receptor, sequence (P21918 whole entry): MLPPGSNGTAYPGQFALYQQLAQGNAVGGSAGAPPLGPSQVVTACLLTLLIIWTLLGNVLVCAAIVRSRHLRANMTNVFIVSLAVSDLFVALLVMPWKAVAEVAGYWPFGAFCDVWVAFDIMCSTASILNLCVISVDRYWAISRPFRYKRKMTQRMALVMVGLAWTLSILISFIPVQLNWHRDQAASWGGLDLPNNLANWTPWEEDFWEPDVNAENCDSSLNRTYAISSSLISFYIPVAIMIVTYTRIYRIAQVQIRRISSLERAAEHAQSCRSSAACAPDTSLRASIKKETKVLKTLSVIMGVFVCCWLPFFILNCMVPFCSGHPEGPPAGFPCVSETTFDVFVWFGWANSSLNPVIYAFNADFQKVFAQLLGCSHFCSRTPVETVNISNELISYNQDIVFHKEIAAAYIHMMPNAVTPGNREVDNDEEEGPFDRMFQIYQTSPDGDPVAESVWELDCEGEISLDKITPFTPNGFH

Histamine H4 receptor = Histamine H4 receptor (Homo sapiens, UniProt Q9H3N8); experiment: Displacement of [3H]Histamine from human recombinant histamine H4 receptor expressed in HEK293 cells after 1 to […] by scintillation counting analysis; type: cell-based
Histamine H4 receptor, sequence (Q9H3N8 whole entry): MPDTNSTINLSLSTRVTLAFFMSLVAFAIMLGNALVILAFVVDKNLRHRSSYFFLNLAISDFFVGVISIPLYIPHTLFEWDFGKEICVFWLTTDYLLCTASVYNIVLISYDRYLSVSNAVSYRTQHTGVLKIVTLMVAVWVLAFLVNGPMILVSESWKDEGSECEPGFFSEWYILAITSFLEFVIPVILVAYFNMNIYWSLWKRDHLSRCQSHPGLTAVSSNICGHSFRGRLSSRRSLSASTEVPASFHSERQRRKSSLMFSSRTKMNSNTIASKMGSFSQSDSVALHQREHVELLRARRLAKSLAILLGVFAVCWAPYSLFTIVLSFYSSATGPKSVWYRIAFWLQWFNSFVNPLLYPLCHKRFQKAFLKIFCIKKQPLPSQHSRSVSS

[7] = biological target: Muscarinic acetylcholine receptor M1 (Homo sapiens, UniProt P11229); experiment: Displacement of [3H]QNB from human recombinant muscarinic M1 receptor expressed in CHO cells after 1 to […] by scintillation counting analysis; type: cell-based
[8] = biological target: Nicotinic acetylcholine receptor alpha2/beta2 (Homo sapiens, UniProt P02708+P17787); experiment: Displacement of [3H]Epibatidine from human recombinant alpha2beta2 nACh receptor expressed in HEK293 cells after 1 to […] by scintillation counting analysis; type: cell-based
[9] = biological target: 5-hydroxytryptamine receptor 2A (Homo sapiens, UniProt P28223); experiment: Agonist activity at human 5-HT2A receptor expressed in HEK293 cells assessed as increase in calcium mobilization by FLIPR assay relative to 5-HT; type: functional, cell-based
[10] = biological target: Alpha-1D adrenergic receptor (Homo sapiens, UniProt P25100); experiment: Displacement of [3H]Prazosin from human recombinant adrenergic alpha1D receptor expressed in HEK293 cells after 1 to […] by scintillation counting analysis; type: cell-based
[11] = biological target: 5-hydroxytryptamine receptor 2B (Homo sapiens, UniProt P41595); experiment: Agonist activity at human 5-HT2B receptor expressed in HEK293 cells assessed as increase in calcium mobilization by FLIPR assay relative to 5-HT; type: functional, cell-based
5-hydroxytryptamine receptor 2B, sequence (P41595 whole entry): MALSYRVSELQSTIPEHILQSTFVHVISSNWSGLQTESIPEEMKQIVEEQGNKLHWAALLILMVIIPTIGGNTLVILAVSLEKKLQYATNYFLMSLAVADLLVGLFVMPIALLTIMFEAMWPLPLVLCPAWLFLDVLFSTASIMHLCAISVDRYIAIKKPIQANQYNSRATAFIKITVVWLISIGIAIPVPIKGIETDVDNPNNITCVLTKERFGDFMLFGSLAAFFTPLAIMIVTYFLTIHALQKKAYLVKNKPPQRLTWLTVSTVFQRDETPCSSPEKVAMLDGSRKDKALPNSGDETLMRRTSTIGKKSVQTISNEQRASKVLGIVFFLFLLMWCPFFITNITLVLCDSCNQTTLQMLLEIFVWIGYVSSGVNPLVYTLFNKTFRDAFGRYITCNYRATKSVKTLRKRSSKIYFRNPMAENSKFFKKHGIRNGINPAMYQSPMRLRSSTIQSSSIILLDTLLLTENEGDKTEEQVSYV

[12] = biological target: Sodium-dependent dopamine transporter (Homo sapiens, UniProt Q01959); experiment: Displacement of [3H]WIN35428 from human recombinant dopamine transporter expressed in HEK293 cells after 1 to […] by scintillation counting analysis; type: cell-based
Sodium-dependent dopamine transporter, sequence (Q01959 whole entry): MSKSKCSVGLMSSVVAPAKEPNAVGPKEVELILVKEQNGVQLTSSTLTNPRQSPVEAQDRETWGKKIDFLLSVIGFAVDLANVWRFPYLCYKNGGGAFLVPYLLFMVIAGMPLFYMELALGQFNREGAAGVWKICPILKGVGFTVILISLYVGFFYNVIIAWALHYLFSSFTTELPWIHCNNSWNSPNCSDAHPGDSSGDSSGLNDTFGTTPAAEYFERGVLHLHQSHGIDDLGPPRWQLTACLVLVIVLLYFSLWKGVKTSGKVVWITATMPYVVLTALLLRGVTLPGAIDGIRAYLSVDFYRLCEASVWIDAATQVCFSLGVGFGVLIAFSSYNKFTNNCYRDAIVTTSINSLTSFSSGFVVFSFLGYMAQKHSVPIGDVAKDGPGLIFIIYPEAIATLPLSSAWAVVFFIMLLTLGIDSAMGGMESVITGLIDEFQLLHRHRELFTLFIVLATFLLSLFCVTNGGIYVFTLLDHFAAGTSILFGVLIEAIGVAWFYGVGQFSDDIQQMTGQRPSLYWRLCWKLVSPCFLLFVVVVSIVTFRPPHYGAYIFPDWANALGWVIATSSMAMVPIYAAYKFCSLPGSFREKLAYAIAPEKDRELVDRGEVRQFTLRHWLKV

[13] = biological target: Neuronal acetylcholine receptor; alpha4/beta4 (Homo sapiens, UniProt P30926+P43681); experiment: Displacement of [3H]Epibatidine from human recombinant alpha4beta4 nACh receptor expressed in HEK293 cells after 1 to […] by scintillation counting analysis; type: cell-based
[14] = biological target: 5-hydroxytryptamine receptor 1A (Homo sapiens, UniProt P08908); experiment: Displacement of [3H]8-OH-DPAT from human recombinant 5-HT1A receptor expressed in CHO cells after 1 to […] by scintillation counting analysis; type: cell-based
5-hydroxytryptamine receptor 1A, sequence (P08908 whole entry): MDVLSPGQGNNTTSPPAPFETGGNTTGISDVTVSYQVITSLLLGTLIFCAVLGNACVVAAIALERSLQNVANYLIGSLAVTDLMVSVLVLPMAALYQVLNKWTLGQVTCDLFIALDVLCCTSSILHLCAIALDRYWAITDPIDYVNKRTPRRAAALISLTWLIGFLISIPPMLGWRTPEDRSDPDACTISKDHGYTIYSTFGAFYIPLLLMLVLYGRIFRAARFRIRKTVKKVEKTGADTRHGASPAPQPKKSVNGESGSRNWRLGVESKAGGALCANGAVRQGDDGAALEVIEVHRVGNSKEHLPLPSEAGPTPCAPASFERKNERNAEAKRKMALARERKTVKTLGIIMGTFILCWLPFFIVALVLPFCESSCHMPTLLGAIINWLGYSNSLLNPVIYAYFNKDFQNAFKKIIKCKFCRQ

Cannabinoid receptor 1 = Cannabinoid receptor 1 (Homo sapiens, UniProt P21554); experiment: Displacement of [3H]CP55940 from human recombinant CB1 receptor expressed in HEK293 cells coexpressing FLP-IN after 1 to […] by scintillation counting analysis; type: cell-based
Cannabinoid receptor 1, sequence (P21554 whole entry): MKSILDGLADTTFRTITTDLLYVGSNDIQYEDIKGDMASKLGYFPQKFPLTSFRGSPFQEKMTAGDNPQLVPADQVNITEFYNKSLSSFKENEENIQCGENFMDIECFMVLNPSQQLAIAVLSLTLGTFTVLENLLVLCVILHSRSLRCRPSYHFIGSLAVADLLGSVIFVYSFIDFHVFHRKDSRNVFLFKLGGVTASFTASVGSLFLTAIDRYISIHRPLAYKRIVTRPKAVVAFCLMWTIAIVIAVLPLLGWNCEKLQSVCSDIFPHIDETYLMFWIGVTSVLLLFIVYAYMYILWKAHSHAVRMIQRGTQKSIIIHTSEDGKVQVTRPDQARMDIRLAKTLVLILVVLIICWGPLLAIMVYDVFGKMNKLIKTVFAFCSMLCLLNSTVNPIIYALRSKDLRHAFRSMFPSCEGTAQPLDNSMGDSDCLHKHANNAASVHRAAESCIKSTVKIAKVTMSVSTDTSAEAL

[15] = biological target: T2, Sodium-dependent serotonin transporter (Homo sapiens, UniProt P31645); experiment: Displacement of [3H]Citalopram from human recombinant serotonin transporter expressed in HEK293 cells after 1 to […] by scintillation counting analysis; type: cell-based
T2 sequence (P31645 whole entry): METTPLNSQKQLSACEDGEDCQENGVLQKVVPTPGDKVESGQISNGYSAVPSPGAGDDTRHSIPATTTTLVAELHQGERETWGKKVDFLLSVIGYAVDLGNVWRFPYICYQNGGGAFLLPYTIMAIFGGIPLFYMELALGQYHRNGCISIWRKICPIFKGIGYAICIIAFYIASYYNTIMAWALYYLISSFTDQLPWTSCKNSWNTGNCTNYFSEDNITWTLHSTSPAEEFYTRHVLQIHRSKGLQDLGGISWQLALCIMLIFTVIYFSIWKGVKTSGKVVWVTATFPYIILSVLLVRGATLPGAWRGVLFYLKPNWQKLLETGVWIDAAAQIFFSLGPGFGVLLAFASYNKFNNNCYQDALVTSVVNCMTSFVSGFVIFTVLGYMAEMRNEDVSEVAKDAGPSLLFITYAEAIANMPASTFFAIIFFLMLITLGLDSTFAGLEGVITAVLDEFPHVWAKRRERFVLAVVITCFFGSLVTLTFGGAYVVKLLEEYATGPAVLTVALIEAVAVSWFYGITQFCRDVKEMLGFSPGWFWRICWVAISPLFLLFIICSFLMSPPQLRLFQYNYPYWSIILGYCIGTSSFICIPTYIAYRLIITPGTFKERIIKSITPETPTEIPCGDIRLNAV

[16] = biological target: 5-hydroxytryptamine receptor 5A (Homo sapiens, UniProt P47898); experiment: Displacement of [3H]LSD from human recombinant 5-HT5A receptor expressed in CHO cells coexpressing FLP-IN after 1 to […] by scintillation counting analysis; type: cell-based
[17] = biological target: T1, 5-hydroxytryptamine receptor 2C; experiment: Agonist activity at human 5-HT2C receptor expressed in HEK293 cells assessed as increase in calcium mobilization by FLIPR assay; type: functional, cell-based
Histamine H3 receptor = Histamine H3 receptor (Homo sapiens, UniProt Q9Y5N1); experiment: Displacement of [3H]alpha-methylhistamine from human recombinant histamine H3 receptor expressed in HEK293 cells after 1 to […] by scintillation counting analysis; type: cell-based
[18] = biological target: T2, Sodium-dependent serotonin transporter; type: cell-based, HEK293
[19] = biological target: Neuronal acetylcholine receptor; alpha4/beta2 (Homo sapiens, UniProt P17787+P43681); experiment: Displacement of [3H]Epibatidine from alpha4beta2 nACh receptor in HEK293 cells after 1 to […] by scintillation counting analysis; type: cell-based
[20] = biological target: Alpha-2B adrenergic receptor (Homo sapiens, UniProt P18089); experiment: Displacement of [3H]Clonidine from human recombinant adrenergic alpha2B receptor expressed in HEK293T cells after 1 to […] by scintillation counting analysis; type: cell-based, HEK-293T
D(2) dopamine receptor = D(2) dopamine receptor (Homo sapiens, UniProt P14416); experiment: Displacement of [3H]N-methylspiperone from human recombinant dopamine D2 receptor expressed in HEK293 cells after 1 to […] by scintillation counting analysis; type: cell-based
[21] = biological target: Alpha-1B adrenergic receptor (Homo sapiens, UniProt P35368); experiment: Displacement of [3H]Prazosin from human recombinant adrenergic alpha1B receptor expressed in HEK293 cells after 1 to […] by scintillation counting analysis; type: cell-based

Row | Structure (SMILES) | Ki [1] | Ki [2] | Ki [3] | Ki [4] | Ki ([5]; read-out: pKi (converted)) | pKi [6] | Ki (D(1B) dopamine receptor) | Ki (Histamine H4 receptor) | Ki [7] | Ki [8] | Emax [9] | Ki [10] | Emax [11] | Ki [12] | Ki [13] | Ki [14] | Ki (Cannabinoid receptor 1) | Ki [15] | Ki [16] | EC50 [17] | other results
1 | C=CCN(CC=C)CCc1c[nH]c2ccc(OC)cc12 | 1.74 µM | > 10 µM | > 10 µM | > 10 µM | 0.398 µM | < 5 | > 10 µM | > 10 µM | > 10 µM | > 10 µM | 93% | > 10 µM | 95% | > 10 µM | > 10 µM | 0.175 µM | > 10 µM | 0.679 µM | > 10 µM | 0.0094 µM | Ki ([5]; read-out: Ki): 0.4 µM; Ki (Histamine H3 receptor): > 10 µM; IC50 [18]: 8.71 µM; Ki [18]: 2.47 µM; Ki [19]: > 10 µM
2 | CC(N)Cc1c[nH]c2ccccc12 (configuration not stated) | 0.166 µM | > 10 µM | > 10 µM | > 10 µM | > 10 µM | < 5 | > 10 µM | > 10 µM | > 10 µM | > 10 µM | 89% | > 10 µM | 84% | > 10 µM | > 10 µM | 3.24 µM | > 10 µM | 1.13 µM | > 10 µM | 0.107 µM | Ki [20]: > 10 µM; Ki (D(2) dopamine receptor): > 10 µM; Ki [21]: > 10 µM; Ki (Histamine H3 receptor): > 10 µM; IC50 [18]: 2.34 µM; Ki [18]: 0.812 µM; Ki [19]: > 10 µM
